The values below come from patent US20110020470A1, “METHODS AND COMPOSITIONS FOR TREATING CANCER” (SOUND PHARMACEUTICALS INCORPORATED, priority 2005, published 2011).

The subject of series [1] is NuTu-19 ovarian cancer cells. Description: MTS cell viability assay, cultured NuTu-19 cells. In kind it is cell-based, rat. As to conditions: for effect on the ability of cisplatin to kill NuTu-19 cells: with cisplatin 43 μM, FIG. 2 and 3. On the procedure:
NuTu-19 cells were plated at a density of 3,000 cells per well in 96 well culture dishes, and incubated at 37° C., in the presence of 5% carbon dioxide, for 24 hours. […] The NuTu-19 cells were then rinsed with media and incubated in the presence of cisplatin for an additional 24 hours.
The NuTu-19 cells were then rinsed twice with phosphate buffered saline (PBS), then MTS assays were performed to measure the number of living cells. MTS is an abbreviation for (3-(4,5-dimethylthiazol-2-yl)-5-(3-carboxymethoxyphenyl)-2-(4-sulfophenyl)-2H-tetrazolium. The MTS assay is a colorimetric method for determining the number of viable cells based upon physiologic catabolism of MTS to a formazan product that is soluble in tissue culture medium. The absorbance of the formazan product at 490 nm can be measured directly from a 96 well plate using a plate reader. Increased absorbance at 490 nm correlates with increased production of formazan in a well. This is typically due to more viable cells present in a well.

The subject of series [2] is CAOV-3 adenocarcinoma ovarian cancer cells. As to the kind of experiment: MTT cytotoxicity study with ebselen and allopurinol. It is filed as cell-based, human. Particulars: each drug 100 μM, no cisplatin/paclitaxel. The protocol: (§1) Each of the cell lines listed above was plated at a density of 3,500 cells per well in 96 well plates and incubated at 37° C. for 24 hours. […] After the one hour incubation, 50 μl of cisplatin and paclitaxel were added to the cell lines at the various concentrations shown in TABLE 2 to achieve an IC50 in the absence of other drugs. The cells were then incubated at 37° C. in 5% CO2 in the presence of the cisplatin and paclitaxel for an additional 67-72 hours. Control wells were included as follows: no drug, ebselen, allopurinol, ebselen and allopurinol, and cisplatin/paclitaxel.
(§2) After the 67-72 hour incubation period, 10 μl of MTT (3-(4,5-dimethlythiazol-2-yl)-2,5-diphenyl […] bromide) working solution was added to each well (based on the instructions in the Chemicon MTT Cell Growth Kit Cat #CT01) and the cells were incubated for 4 hours. 100 μl of isopropanol/HCl solution was then added to each well and absorbance at 570 nm was measured. The results of the MTT assay for the different ovarian cancer cell lines tested are shown in FIGS. 9A-16C and are summarized below in TABLE 3.

For series [3], the system named is ES-2 clear cell carcinoma ovarian cancer cells. Described as above. It is filed as cell-based, human. Particulars: each drug 100 μM, no cisplatin/paclitaxel. On the procedure: as §1, §2
Series [4] concerns OV-90 papillary serous adenocarcinoma ovarian cancer cells. Described as above. In kind it is cell-based, human. As to conditions: each drug 100 μM, no cisplatin/paclitaxel. The protocol:
as §1, §2

The subject of series [5] is OVCAR-3 adenocarcinoma ovarian cancer cells. The series is described as above. It is filed as cell-based, human. As to conditions: each drug 100 μM, no cisplatin/paclitaxel. On the procedure: as §1, §2
For series [6], the system named is SKOV-3 adenocarcinoma ovarian cancer cells. Described as above. It is filed as cell-based, human. Particulars: each drug 100 μM, no cisplatin/paclitaxel. On the procedure: as §1, §2
The subject of series [7] is TOV-112D adenocarcinoma/endometroid carcinoma ovarian cancer cells. Described as above. As to conditions: each drug 100 μM, no cisplatin/paclitaxel. It is filed as cell-based, human. The protocol:
as §1, §2

The test system of series [8] is rSPI-tu epithelial ovarian cancer cells. The series is described as above. In kind it is cell-based, rat. As to conditions: each drug 100 μM, no cisplatin/paclitaxel. On the procedure: Each of the cell lines listed above was plated at a density of 3,500 cells per well in 96 well plates and incubated at 37° C. for 24 hours. […] After the one hour incubation, 50 μl of cisplatin and paclitaxel were added to the cell lines at the various concentrations shown in TABLE 2 to achieve an IC50 in the absence of other drugs. […]
[…], 10 μl of MTT (3-(4,5-dimethlythiazol-2-yl)-2,5-diphenyl […] bromide) working solution was added to each well (based on the instructions in the Chemicon MTT Cell Growth Kit Cat #CT01) and the cells were incubated for 4 hours. 100 μl of isopropanol/HCl solution was then added to each well and absorbance at 570 nm was measured.

Series [9] concerns mammalian ovarian cancer cell lines. As to the kind of experiment: MTT cytotoxicity study, statements over all ovarian cancer cell lines tested. In kind it is cell-based. On the procedure: Each of the cell lines listed above was plated at a density of 3,500 cells per well in 96 well plates and incubated at 37° C. for 24 hours. […] After the one hour incubation, 50 μl of cisplatin and paclitaxel were added to the cell lines at the various concentrations shown in TABLE 2 to achieve an IC50 in the absence of other drugs. The cells were then incubated at 37° C. in 5% CO2 in the presence of the cisplatin and paclitaxel for an additional 67-72 hours.
After the 67-72 hour incubation period, 10 μl of MTT (3-(4,5-dimethlythiazol-2-yl)-2,5-diphenyl […] bromide) working solution was added to each well (based on the instructions in the Chemicon MTT Cell Growth Kit Cat #CT01) and the cells were incubated for 4 hours. 100 μl of isopropanol/HCl solution was then added to each well and absorbance at 570 nm was measured.

The test system of the next series is NuTu-19 tumors. As to the kind of experiment: NuTu-19 ovarian cancer tumor model in F-344 rats, tumor response. In kind it is in vivo, rat. The protocol: An ovarian cancer tumor model was established in rats by injection of 10^7 NuTu-19 cells into the peritoneal cavity of 8-10 week old female F-344 rats. Rats with injected NuTu-19 cells were allowed to develop tumor burden for two weeks prior to cisplatin treatment. A control series of 10 rats was evaluated separately for the development of ovarian tumor burden under the described conditions. All rats in the control series were sacrificed 5 weeks after NuTu-19 tumor cell injection and tumor burden was evaluated.
The absence of ascites, but presence of more than 5 visible tumor nodules (each >0.5 mm) in the peritoneal cavity was considered to be an indication that the cancer partially responded to the treatment. The absence of ascites and presence of fewer than 5 visible tumor nodules (each >0.5 mm) was considered to be an indication that the cancer fully responded to the treatment.

For series [10] the following is noted: patients receiving cisplatin; Helson 1978; cited from earlier work.
The next series deals with inner ear hair cells. Description: Cochlea explant culture, inner ear hair cell count (calbindin/DAPI). It is filed as cell-based, mouse. Particulars: FIG. 5. On the procedure: Three cochlea per treatment, obtained from P3-4 mouse pups, were cultured in 0.4 micrometer MilliCell-CM inserts with NeuroBasal A medium plus B27 supplement. After 24 hours in culture, ebselen was added to the medium, incubated for ten minutes, and then cisplatin was added to the medium at a final concentration of 43 μM. A first control treatment included 43 μM cisplatin. A second control treatment included 47 μM ebselen without the addition of cisplatin. All cultures were incubated for 24 hours at 37° C. in 5% carbon dioxide.
The explants were then harvested, fixed, and stained with calbindin (which detects hair cells) and DAPI (4′,6-Diamindino-2-phenylindole; for detection of nuclear DNA).

For series [11], the system named is rats treated with cisplatin. Description: Auditory Evoked Brainstem Response (ABR), permanent threshold shift after cisplatin. In kind it is in vivo, rat. As to conditions: 8, 16, 24, 32 kHz; ebselen 16 mg/kg i.p. plus cisplatin 16 mg/kg i.p., versus cisplatin without ebselen; 72 hours; FIG. 6. The protocol:
(§3) Auditory Evoked Brainstem Response (ABR) was used to assess hearing in rats before and after exposure to cisplatin and chemoprotectants. Ebselen or DMSO (control vehicle) were introduced intraperitoneally into rats one hour before intraperitoneal administration of cisplatin at a dosage of 16 mg/kg body weight. Seventy-two hours after delivery of cisplatin, ABR data were collected, animals were sacrificed, cochleae were collected, dissected, stained with FITC-phalloidin (to detect F-Actin in hair cells), and DAPI (to detect nuclear DNA).
Ten cochlea were tested per treatment. The PTS is a measure of hearing loss.
Four cochlea were tested per treatment.

Series [12] deals with cochlear outer hair cells. As to the kind of experiment: Count of outer auditory hair cells in excised cochleae after cisplatin. Particulars: cisplatin and ebselen versus cisplatin, saline and DMSO; FIG. 8A, 8B. It is filed as in vivo, rat. The protocol:
as §3
Additionally, cochleae were excised from rats treated with the combination of cisplatin and ebselen as described in this Example. Cochleae were also excised from rats treated with cisplatin and saline and DMSO (control). The number of outer auditory hair cells in the excised cochlea were counted at intervals of 0.1 mm along the cochlea. Representative results from a control rat and a treated rat are shown in FIG. 8A and FIG. 8B, respectively.

For series [13], the system named is TOV-21G adenocarcinoma/clear cell carcinoma ovarian cancer cells. Description: MTT cytotoxicity study with ebselen and allopurinol. Particulars: each drug 100 μM, no cisplatin/paclitaxel. In kind it is cell-based, human. On the procedure: as §1, §2
For a further series, the system named is non-cancer cell line. As to conditions: Baldew et al. 1992; cited from earlier work.
The conditions of series [14]: treatment of acute ischemic stroke; cited from earlier work.
[15] abbreviates: all cell lines tested, concentration range from 20 μM to 100 μM.

With `Oc1ncnc2[nH]ncc12` [allopurinol], the “effect on the ability of cisplatin to kill NuTu-19 cells” value in series [1] is reported as “does not inhibit the ability of cisplatin to kill NuTu-19 ovarian cancer tumor cells”. In addition, the “Percent live cells after 96 hour drug treatment” value (from here on “Percent live cells”) in [2] is reported as roughly 80%; in series [3], roughly 90%; in series [4], roughly 100%; in [5], roughly 100%; in series [6] it was roughly 90%; in series [7], roughly 100%. Also, the “Percent live cells” value in series [8] is recorded as roughly 80%. The “cytotoxicity on the ovarian cancer cell lines” value in series [9] (setting [15]) is reported as “did not have a toxic effect”.
In the case of `N.N.[Cl][Pt][Cl]` [cisplatin, cis-diaminedichloroplatinum], in series [1] (incubation for 24 hours in the presence of cisplatin, FIG. 1), the “killing of cultured NuTu-19 ovarian cancer cells” value is reported as “killed”. For the same molecule, the “Tumor Response % Complete” value in the series with NuTu-19 tumors (rats that showed no sign of tumor burden) was 57%. For the same molecule, the “Tumor Response % Partial” value in the series on NuTu-19 tumors (rats that showed some evidence of tumor burden) was 43%. Further, the “Tumor Response % No” value in the series with NuTu-19 tumors (rats with tumors not responsive to cisplatin treatment) worked out at 0%. Also, the “patients who experience significant hearing loss” value in series [10] is given as “up to 90%”.
Consider `O=c1c2ccccc2[se]n1-c1ccccc1` [ebselen, 2-phenyl-1,2-benzoisoselenazol-3(2H)-one], for which the “effect on the ability of cisplatin to kill NuTu-19 cells” value in series [1] is “does not inhibit the ability of cisplatin to kill NuTu-19 ovarian cancer tumor cells”. Further, the “protection of inner ear hair cells from damage by cisplatin” value in the series with inner ear hair cells (47 μM ebselen plus 43 μM cisplatin, 24 hours, in vitro) is reported as “protects inner ear hair cells from damage by cisplatin”. Further, the “cytotoxic effect on cochlear inner ear cells” value in the series with inner ear hair cells (ebselen 47 μM without cisplatin) is recorded as “does not appear to have a cytotoxic effect”. Also, in [11], the “permanent threshold shift (PTS) in hearing” value was “PTS is less”. Further, in [12], the “percentage of outer hair cells missing in cochleae” value is recorded as “less”. Also, the “Percent live cells” value in [2] is on record as roughly 0%; in series [3], roughly 20%; in [4], roughly 40%; in [5], roughly 20%; in [6] it was roughly 40%; in series [7] it was roughly 18%. The results for the “Percent live cells” value in [13] and in series [8] were roughly 18% and roughly 20%, respectively. Moreover, the “effect on the chemotherapeutic activity of cisplatin and paclitaxel in multi-drug chemotherapy resistant cell lines” value in series [9] (ES-2, SKOV-3 and OVCAR-3) was “enhanced the chemotherapeutic activity of cisplatin and paclitaxel”. In series [9] (setting [15]), the “cytotoxicity on the ovarian cancer cell lines” value is listed as “induced dose-dependant cytotoxicity”. In [9] (setting [15]), the “effect on the chemotherapeutic effect of cisplatin plus paclitaxel” value is given as “enhances the chemotherapeutic effect of cisplatin plus paclitaxel”. Further, in the series on non-cancer cell line, the “toxicity in a non-cancer cell line” value was “non-toxic”. Moreover, the “adverse events in human clinical testing” value in series [14] is “no adverse events were identified”.
